The test system of the assay is Long Evans rats. Description: Progressive ratio (PR) test, Study B. The class given is in vivo. The conditions noted are these: 0.025 mg/kg, rats. As for the experimental part: General: Experiments were conducted to test psilocybin doses in the range of 0.01-0.2 mg/kg psilocybin administered S.C. across progressive ratio (PR) and 5-choice serial reaction time task (5CSRTT) to examine the effect of psilocybin on endophenotypes of motivation and attention. In each study, a population of out-bred Long Evans rats was first tested as a group for response to the PR and 5CSRTT. Each group was then divided into subgroups by tertiles according to performance, and then exposed to various dose levels immediately prior to re-testing at various psilocybin dose levels.
The PR test is used to answer how willing the test subject is to work for food (i.e. test of motivation). A single 45 mg food pellet (i.e. reinforcer) is made available to the test animal based on lever press response. To obtain each successive pellet, the animal must make increasingly more lever presses. Typically, a progression of 2, 4, 6, 9, 12, 15, 20, 25, 32, 40, 50, 62, 77, 95, 118, etc. is used, derived from the equation:
ratio=[5×e^(0.2×reinforcer #)−5]
At some point, the animal gives up as the motor demands to obtain a single pellet are not deemed worthwhile (i.e. animal reaches “break point” defined as animal's failure to earn a food pellet in 20 minutes).
Study B: Based on Study 1 outcome, a follow-up PR study was conducted utilizing a larger cohort size (72 rats total), and incorporating a lower dose of psilocybin (0.025 mg/kg SC) (FIG. 2C and FIG. 2D). […] Separation of rats based on the lowest average break point recorded over the 7 days prior to testing identified a “low responder” subgroup of N=24 rats. […] There was no treatment effect on session duration (F3,69=2.4; P=0.07, NS), although there was trend for this to be increased at the 0.1 mg/kg dose (Veh: 15.1+2.0 min; Psilo 0.1 mg/kg: 18.7+2.5 min).

We go through 1 molecule from US20230233584A1, “EXTENDED RELEASE 5-HT RECEPTOR AGONISTS FOR NEUROLOGICAL CONDITIONS” (Diamond Therapeutics Inc., priority 2020, published 2023).

Turning to `CCN(CC)C(=O)[C@@H]1C=C2c3cccc4[nH]cc(c34)C[C@H]2N(C)C1` [LSD, D-lysergic acid diethylamide], the “effect in PR test at lowest dose tested” value is given as “no significant effect”.
